Laboratory results as given in patent US20220251092A1, “CASEIN KINASE 1EPSILON INHIBITOR, PHARMACEUTICAL COMPOSITION AND APPLICATION THEREOF” (HANGZHOU HEALZEN THERAPEUTICS CO., LTD., priority 2019, published 2022).

How the values were obtained:
CK1ε = CK1ε (Homo sapiens, UniProt P49674); test: CK1ε kinase activity assay (Caliper, FAM-labelled polypeptide); format: biochemical
Procedure: The in-vitro assay of inhibitory activity of the compound herein against CK1ε kinase was:
(1) preparation of 1× kinase basic buffer and stop buffer: • 1×kinase basic buffer: 50 mM HEPES, pH 7.5; and 0.0015% Brij-35; • stop buffer: 100 mM HEPES, pH 7.5; 0.015% Brij-35; 0.2% Coating Reagent #3; and 50 mM EDTA.
(2) preparation of the test compound: • a 50× (“n×” represents dilution factor, same hereafter) stock solution of the compound with DMSO (10 mM, DMSO) to obtain stock solution I for use; […] of stock solution I was placed in a 96-well plate, each compound sample was diluted by 5-fold serial dilution till 10 concentrations was obtained while ensuring 10 μl of drug solution in each well; meanwhile, 100 μl of DMSO was used as a blank control group and a negative control group without enzyme substrate; • a separate 96-well plate was prepared, and to 10 μl of the above compound,
90 μl of 1× kinase foundation buffer was added, mixed well for 10 min to obtain a mixture.

OCI-LY10 cells = test: In-vitro anti-tumor activity, OCI-LY10 cells, CCK-8; format: cell-based, human; details: Homo sapiens; OCI-LY10, 72h, CCK-8; read-out: IC50
Procedure: The in-vitro anti-tumor activities of the synthesized compounds were determined using a diffuse large B-cell lymphoma (OCI-LY10) cell strain:
Drug preparation method: The drug was dissolved in DMSO to make a stock solution of 10 mM and diluted in a certain ratio to obtain 7 different concentrations (test concentration: 100×).
In vitro culture of tumor cells: The selected OCI-LY10 cells were incubated with a medium of IMDM+fetal bovine serum in a 5% CO2 cell culture incubator at 37° C., and were passaged when the cell density grew to 70-90% (adherent cells were passaged after digestion with Duck's EDTA) for later experiments as needed. Four thousand cells/200 μl/well were seeded in a 96-well plate and incubated overnight in a 5% CO2 cell incubator at 37° C. Two μl of the compounds were dispensed in each well at final concentrations of […], and incubation was performed together for 72h in a 5% CO2 cell incubator at 37° C. with DMSO (2%) as control. After 72h, 20 μl of CCK-8 solution was added and the plate was placed in a 5% CO2 cell culture incubator at 37° C. for 4h. Wells with the corresponding amounts of cell culture medium and CCK-8 solution but without cells were used as blank controls. The absorbance (OD values) was measured at 450 nm using an enzyme marker, and the obtained data were used to calculate the IC50.

OCI-LY10 xenograft tumor = test: In vivo pharmacodynamic study, OCI-LY10 subcutaneous xenograft in SCID mice; parameters: species or system SCID mouse; details: Table 4; 100 mg/kg PO QD Day 0-38; combinations with 17a 6 mg/kg PO QD
Procedure: OCI-LY10 cells were cultured in an IMDM medium containing 20% FBS and maintained in a 5% CO2 incubator at 37° C. with saturated humidity. OCI-LY10 cells of logarithmic phase were collected and resuspended in an IMDM basic medium containing 50% Matrigel, and the cell concentration was adjusted to 5×10^7/ml. Subcutaneous inoculation of 0.1 ml of the cell suspension was performed aseptically in the right dorsum of mice at a concentration of 5×10^6/0.1 ml/mouse. Once the tumor volume reached about 150 mm^3, the animals were randomly grouped according to tumor volume so that the difference in tumor volume between the groups was less than 10% of the mean value. The date of grouping was recorded as Day 0, and drug administration was started based on the body weight of the animals. During drug administration, body weight of certain animals decreased by more than 15% compared to Day 0 (BWL≥15%), drug administration was discontinued for these animals until their body weight recovered (BWL<15%). The body weight and tumor volume of the animals were measured twice a week during the experiment, and clinical signs were observed and recorded daily.
The efficacy in terms of tumor volume was evaluated by the relative tumor proliferation rate T/C ratio, and T/C (%) was calculated as TRTV/CRTV[…], where TRTV is the relative tumor volume (RTV) of the treatment group and CRTV is the RTV of the negative control group. The RTV was calculated as Vt/V0, where V0 is the tumor volume at the time of grouping and Vt is the tumor volume at each measurement. The drug is considered effective with T/CP≤40% according to NMPA guidelines.
The efficacy in terms of tumor weight was evaluated by TGI (tumor weight inhibition) values, TGI 0%=(TWC−TWT)/TWC×[…], where TWC is tumor weight of control group, and TWT is tumor weight of treatment group. The drug is considered effective with TGI≥58% according to NIH guidelines.

Chain of CK1ε (P49674 whole entry): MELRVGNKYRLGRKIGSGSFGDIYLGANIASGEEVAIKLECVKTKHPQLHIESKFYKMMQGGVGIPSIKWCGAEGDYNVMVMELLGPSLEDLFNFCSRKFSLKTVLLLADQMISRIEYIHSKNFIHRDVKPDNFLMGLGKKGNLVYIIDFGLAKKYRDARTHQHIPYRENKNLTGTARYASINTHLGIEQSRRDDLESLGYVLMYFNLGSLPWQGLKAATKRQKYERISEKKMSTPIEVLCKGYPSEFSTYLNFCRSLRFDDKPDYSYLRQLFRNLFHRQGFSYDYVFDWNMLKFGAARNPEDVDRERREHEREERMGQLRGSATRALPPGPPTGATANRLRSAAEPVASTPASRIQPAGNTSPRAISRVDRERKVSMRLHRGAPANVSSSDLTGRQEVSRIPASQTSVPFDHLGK

| IC50 (CK1ε) | SMILES | other results |
| --- | --- | --- |
| 1.73 µM | CC(C)Oc1ccc(-c2nn(C(C)c3nc4ccccc4c(=O)n3-c3ccccc3)c3ncnc(N)c23)cc1F (centres unmarked) [Compound A, reference compound] |  |
| 2.71 µM | CC(c1nc2ccccc2c(=O)n1-c1ccccc1)n1nc(-c2ccc(OC3CC3)c(F)c2)c2c(N)ncnc21 (centres unmarked) [Compound B, reference compound] |  |
| 0.701 µM | COc1ccc(-c2nn(C(C)c3nc4cccc(Cl)c4c(=O)n3-c3ccccc3)c3ncnc(N)c23)cc1F (centres unmarked) [Compound C, reference compound] | IC50 (OCI-LY10 cells): 2.7 µM |
| 1.29 µM | CC(C)Oc1ccc(-c2nn(C(C)c3nc4cccc(F)c4c(=O)n3-c3ccccc3)c3ncnc(N)c23)cc1F (centres unmarked) [Compound D, reference compound] | IC50 (OCI-LY10 cells): 0.746 µM |
| 0.164 µM | COc1ccc(-c2nn(C(C)c3nc4ccccc4c(=O)n3-c3ccccc3)c3ncnc(N)c23)c(F)c1F (centres unmarked) [II-A-1, 2-(1-(4-amino-3-(2,3-difluoro-4-methoxyphenyl)-1H-pyrazolo[3,4-d]pyrimidin-1-yl)ethyl)-3-phenylquinazolin-4(3H)-one] | IC50 (OCI-LY10 cells): 0.142 µM; RTV Day 39 (OCI-LY10 xenograft tumor): 2.45 ± 0.50; T/C (%) Day 39 (OCI-LY10 xenograft tumor): 35.40%; TGI (%) (OCI-LY10 xenograft tumor): 63.91%; Tumor weight (OCI-LY10 xenograft tumor): 0.288 ± 0.064 g |
| 0.484 µM | COc1ccc(-c2nn([C@H](C)c3nc4ccccc4c(=O)n3-c3ccccc3)c3ncnc(N)c23)c(F)c1F [II-A-1b, (R)-2-(1-(4-amino-3-(2,3-difluoro-4-methoxyphenyl)-1H-pyrazolo[3,4-d]pyrimidin-1-yl)ethyl)-3-phenylquinazolin-4(3H)-one] |  |
| 0.145 µM | CC(C)Oc1ccc(-c2nn(C(C)c3nc4ccccc4c(=O)n3-c3ccccc3)c3ncnc(N)c23)c(F)c1F (centres unmarked) [II-A-2, 2-(1-(4-amino-3-(2,3-difluoro-4-isopropoxyphenyl)-1H-pyrazolo[3,4-d]pyrimidin-1-yl)ethyl)-3-phenylquinazolin-4(3H)-one] | fold increase of inhibitory activity against CK1ε (CK1ε; compared to compound A): 12 fold; IC50 (OCI-LY10 cells): 0.234 µM |
| 0.088 µM | CC(C)Oc1ccc(-c2nn([C@@H](C)c3nc4ccccc4c(=O)n3-c3ccccc3)c3ncnc(N)c23)c(F)c1F [II-A-2a, (S)-2-(1-(4-amino-3-(2,3-difluoro-4-isopropoxyphenyl)-1H-pyrazolo[3,4-d]pyrimidin-1-yl)ethyl)-3-phenylquinazolin-4(3H)-one] |  |
| 0.45 µM | CC(C)Oc1ccc(-c2nn([C@H](C)c3nc4ccccc4c(=O)n3-c3ccccc3)c3ncnc(N)c23)c(F)c1F [II-A-2b, (R)-2-(1-(4-amino-3-(2,3-difluoro-4-isopropoxyphenyl)-1H-pyrazolo[3,4-d]pyrimidin-1-yl)ethyl)-3-phenylquinazolin-4(3H)-one] |  |
| 0.232 µM | CCOc1ccc(-c2nn(C(C)c3nc4ccccc4c(=O)n3-c3ccccc3)c3ncnc(N)c23)c(F)c1F (centres unmarked) [II-A-3, 2-(1-(4-amino-3-(4-ethoxy-2,3-difluorophenyl)-1H-pyrazolo[3,4-d]pyrimidin-1-yl)ethyl)-3-phenylquinazolin-4(3H)-one] |  |
| 0.234 µM | CC(c1nc2ccccc2c(=O)n1-c1ccccc1)n1nc(-c2ccc(OC3CC3)c(F)c2F)c2c(N)ncnc21 (centres unmarked) [II-A-4, 2-(1-(4-amino-3-(4-cyclopropoxy-2,3-difluorophenyl)-1H-pyrazolo[3,4-d]pyrimidin-1-yl)ethyl)-3-phenylquinazolin-4(3H)-one] | fold increase of inhibitory activity against CK1ε (CK1ε; compared to compound B): 12 fold |
| 0.386 µM | COc1ccc(-c2nn(C(C)c3nc4ccccc4c(=O)n3-c3ccccc3)c3ncnc(N)c23)c(F)c1Cl (centres unmarked) [II-A-5, 2-(1-(4-amino-3-(3-chloro-2-fluoro-4-methoxyphenyl)-1H-pyrazolo[3,4-d]pyrimidin-1-yl)ethyl)-3-phenylquinazolin-4(3H)-one] |  |
| 0.118 µM | COc1ccc(-c2nn(C(C)c3nc4cccc(F)c4c(=O)n3-c3ccccc3)c3ncnc(N)c23)c(F)c1F (centres unmarked) [II-A-8, 2-(1-(4-amino-3-(2,3-difluoro-4-methoxyphenyl)-1H-pyrazolo[3,4-d]pyrimidin−1-yl)ethyl)-5-fluoro-3-phenylquinazolin-4(3H)-one] |  |
| 0.06 µM | COc1ccc(-c2nn([C@@H](C)c3nc4cccc(F)c4c(=O)n3-c3ccccc3)c3ncnc(N)c23)c(F)c1F [II-A-8a, (S)-2-(1-(4-amino-3-(2,3-difluoro-4-methoxyphenyl)-1H-pyrazolo[3,4-d]pyrimidin-1-yl)ethyl)-5-fluoro-3-phenylquinazolin-4(3H)-one] |  |
| 0.1 µM | COc1ccc(-c2nn(C(C)c3nc4ccc(F)cc4c(=O)n3-c3ccccc3)c3ncnc(N)c23)c(F)c1F (centres unmarked) [II-A-9, 2-(1-(4-amino-3-(2,3-difluoro-4-methoxyphenyl)-1H-pyrazolo[3,4-d]pyrimidin-1-yl)ethyl)-6-fluoro-3-phenylquinazolin-4(3H)-one] |  |
| 0.202 µM | COc1cc(F)c(-c2nn(C(C)c3nc4ccccc4c(=O)n3-c3ccccc3)c3ncnc(N)c23)c(F)c1 (centres unmarked) [II-A-12, 2-(1-(4-amino-3-(2,6-difluoro-4-methoxyphenyl)-1H-pyrazolo[3,4-d]pyrimidin-1-yl)ethyl)-3-phenylquinazolin-4(3H)-one] |  |
| 0.1 µM | CC(C)Oc1ccc(-c2nn(C(C)c3nc4cccc(F)c4c(=O)n3-c3ccccc3)c3ncnc(N)c23)c(F)c1F (centres unmarked) [II-A-16, 2-(1-(4-amino-3-(2,3-difluoro-4-isopropoxyphenyl)-1H-pyrazolo[3,4-d]pyrimidin-1-yl)ethyl)-5-fluoro-3-phenylquinazolin-4(3H)-one] | fold increase of inhibitory activity against CK1ε (CK1ε; compared to CUX-031773): 93.6 fold; fold increase of inhibitory activity against CK1ε (CK1ε; compared to compound D): 12.9 fold |
| 0.372 µM | COc1ccc(-c2nn(C(C)c3nc4cccc(Cl)c4c(=O)n3-c3cccnc3)c3ncnc(N)c23)c(F)c1F (centres unmarked) [II-B-2, 2-(1-(4-amino-3-(2,3-difluoro-4-methoxyphenyl)-1H-pyrazolo[3,4-d]pyrimidin-1-yl)ethyl)-5-chloro-3-(pyridin-3-yl)quinazolin-4(3H)-one] | IC50 (OCI-LY10 cells): 0.193 µM |
| 0.202 µM | COc1ccc(-c2nn([C@@H](C)c3nc4cccc(Cl)c4c(=O)n3-c3cccnc3)c3ncnc(N)c23)c(F)c1F [II-B-2a, (S)-2-(1-(4-amino-3-(2,3-difluoro-4-methoxyphenyl)-1H-pyrazolo[3,4-d]pyrimidin-1-yl)ethyl)-5-chloro-3-(pyridin-3-yl)quinazolin-4(3H)-one] |  |
| 0.089 µM | COc1ccc(-c2nn(C(C)c3nc4cccc(Cl)c4c(=O)n3-c3cncc(F)c3)c3ncnc(N)c23)c(F)c1F (centres unmarked) [II-B-3, 2-(1-(4-amino-3-(2,3-difluoro-4-methoxyphenyl)-1H-pyrazolo[3,4-d]pyrimidin-1-yl)ethyl)-5-chloro-3-(5-fluoropyridin-3-yl)quinazolin-4(3H)-one] |  |
| 0.299 µM | COc1ccc(-c2nn(C(C)c3nc4cccc(Cl)c4c(=O)n3N3CCCCC3)c3ncnc(N)c23)c(F)c1F (centres unmarked) [II-C-5, 2-(1-(4-amino-3-(2,3-difluoro-4-methoxyphenyl)-1H-pyrazolo[3,4-d]pyrimidin-1-yl)ethyl)-5-chloro-3-(piperidin-1-yl)quinazolin-4(3H)-one] | IC50 (OCI-LY10 cells): 0.307 µM |
